Patent publication US20220313717A1, “METHODS OF TREATING CRYPTOCOCCUS INFECTIONS” (MATINAS BIOPHARMA NANOTECHNOLOGIES, INC., priority 2019, published 2022)

Key:
[1] = tested on: Cryptococcus spp.; details: in vivo, cited from earlier work
[2] = tested on: Cryptococcus spp.; details: cited from earlier work
[3] = Participant subjective impressions of cAMB versus prior IV AMB (qualitative scale, visual analog); design: species or system human; details: recall of prior IV therapy (6/24)
Protocol: Trial endpoints included: 1) Proportion of daily dose received and tolerated without vomiting within 30 minutes; 2) Cumulative score of nausea, vomiting, diarrhea by Common Terminology Criteria AE (CTCAE) grade scoring criteria (U.S. Department of Health and Human Services NIoH, National Cancer Institute, 2017, Common Terminology Criteria for Adverse Events (CTCAE) v 5.0); 3) Incidence of adverse events (AEs) by National Institute of Allergy and Infectious Diseases (NIAID) Division of AIDS (DAIDS) toxicity scale (version 2017) for Grade 1-5 or serious AEs (SAE) (U.S. Department of Health and Human Services NIoH, National Institute of Allergy and Infectious Diseases, Division of AIDS, 2017, Division of AIDS (DAIDS) Table for Grading the Severity of Adult and Pediatric Adverse Events, Corrected Version 2.1.); 4) Participant subjective impression(s) of cAMB by visual analog and other scales. All clinical and laboratory AEs were followed up until resolution.
Statistical analyses were primarily descriptive. The median and interquartile ranges or the number and proportions were reported where appropriate. Area under the curve (AUC) calculations were made using a linear trapezoidal method with statistical comparison by ANOVA. […]
Using a qualitative scale, we assessed participant impressions of their cAMB experience versus their prior IV AMB experience in the Phase 1A cohort.

[4] = biological target: CYP2C9 (Homo sapiens, UniProt P11712); details: cited from earlier work
CYP2C9, sequence (P11712 whole entry): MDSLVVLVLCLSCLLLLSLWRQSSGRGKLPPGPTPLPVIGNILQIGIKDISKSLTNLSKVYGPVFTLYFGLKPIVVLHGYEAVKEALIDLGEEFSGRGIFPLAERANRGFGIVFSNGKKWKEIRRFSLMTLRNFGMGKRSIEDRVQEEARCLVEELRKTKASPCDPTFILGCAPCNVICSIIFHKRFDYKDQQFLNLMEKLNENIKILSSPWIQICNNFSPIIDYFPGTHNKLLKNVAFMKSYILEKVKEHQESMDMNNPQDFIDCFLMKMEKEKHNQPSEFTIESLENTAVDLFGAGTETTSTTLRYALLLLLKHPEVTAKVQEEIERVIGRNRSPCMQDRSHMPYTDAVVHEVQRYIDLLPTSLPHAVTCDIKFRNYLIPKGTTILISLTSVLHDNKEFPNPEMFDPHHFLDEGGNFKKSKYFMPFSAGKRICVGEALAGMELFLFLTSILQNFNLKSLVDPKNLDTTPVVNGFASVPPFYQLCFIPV

[5] = biological target: CYP3A4 (Homo sapiens, UniProt P08684); details: cited from earlier work
CYP3A4, sequence (P08684 whole entry): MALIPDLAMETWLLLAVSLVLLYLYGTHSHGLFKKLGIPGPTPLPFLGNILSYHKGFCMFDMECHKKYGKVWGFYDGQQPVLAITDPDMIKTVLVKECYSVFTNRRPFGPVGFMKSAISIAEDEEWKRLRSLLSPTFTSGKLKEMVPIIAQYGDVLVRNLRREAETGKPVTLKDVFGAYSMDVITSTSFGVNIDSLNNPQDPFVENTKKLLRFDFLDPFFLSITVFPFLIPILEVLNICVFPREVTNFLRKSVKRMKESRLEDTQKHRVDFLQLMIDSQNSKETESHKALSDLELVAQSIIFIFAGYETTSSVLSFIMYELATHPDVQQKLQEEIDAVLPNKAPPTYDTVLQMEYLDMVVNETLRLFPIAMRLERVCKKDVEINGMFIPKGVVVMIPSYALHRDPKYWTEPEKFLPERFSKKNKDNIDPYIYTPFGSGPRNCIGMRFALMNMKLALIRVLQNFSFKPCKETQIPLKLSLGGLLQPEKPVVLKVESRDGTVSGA

OC(Cn1cnnn1)(c1ccc(F)cc1F)C(F)(F)c1ccc(-c2ccc(OCC(F)(F)F)cc2)cn1 (stereo not drawn) [VT-1129]
fungicidal activity in mouse models of Cryptococcus spp. infection [1]: fungicidal
CNS penetration ([1]; mouse): good CNS penetration

Nc1ncccc1-c1cc(Cc2ccc(COc3ccccn3)cc2)no1 [E1210]
in vitro activity against Cryptococcus spp. [2]: has in vitro activity against Cryptococcus spp.

C[C@@H]1[C@H](O)[C@@H](C)/C=C/C=C/C=C/C=C/C=C/C=C/C=C/[C@H](O[C@@H]2O[C@H](C)[C@@H](O)[C@H](N)[C@@H]2O)C[C@@H]2O[C@](O)(C[C@@H](O)C[C@@H](O)[C@H](O)CC[C@@H](O)C[C@@H](O)CC(=O)O[C@H]1C)C[C@H](O)[C@H]2C(=O)O [IV AMB, amphotericin B]
participants who recalled severe nausea [3]: 25%

OC(Cn1cncn1)(Cn1cncn1)c1ccc(F)cc1F [Fluconazole, fluconazole]
CYP2C9 inhibition [4]: potent CYP2C9 inhibitor
CYP3A4 inhibition [5]: moderate CYP3A4 inhibitor
